Data reported in patent US10294236B2, “Compounds as rearranged during transfection (RET) inhibitors” (GLAXOSMITHKLINE INTELLECTUAL PROPERTY DEVELOPMENT LIMITED, priority 2014, dated 2019).
Counter-ions that a name gives are not always drawn.

Target: T1, Human RET kinase cytoplasmic domain (Homo sapiens, UniProt P07949)
T1 construct: made in house
T1 sequence (P07949 658-1114): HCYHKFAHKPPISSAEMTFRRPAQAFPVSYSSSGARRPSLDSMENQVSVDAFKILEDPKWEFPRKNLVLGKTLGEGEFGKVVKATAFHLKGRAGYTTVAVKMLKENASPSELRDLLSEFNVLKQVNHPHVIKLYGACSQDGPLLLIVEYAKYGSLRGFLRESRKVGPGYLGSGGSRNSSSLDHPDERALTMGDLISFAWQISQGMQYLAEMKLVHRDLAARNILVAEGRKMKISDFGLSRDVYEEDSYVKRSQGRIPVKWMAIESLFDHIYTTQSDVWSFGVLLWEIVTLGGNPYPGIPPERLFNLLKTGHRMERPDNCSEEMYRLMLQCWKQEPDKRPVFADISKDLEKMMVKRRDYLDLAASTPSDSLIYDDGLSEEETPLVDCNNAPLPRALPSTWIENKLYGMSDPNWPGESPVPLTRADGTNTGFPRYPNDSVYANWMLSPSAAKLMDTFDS
Test: RET kinase enzymatic assay
Assay type: biochemical
Protocol: GST-RET was purified using glutathione sepharose chromatography. The RET kinase enzymatic assay was performed in a total volume of 10 uL with increasing concentrations of RET kinase inhibitor as a singlet in a 384 well format as follows: RET inhibitor compound plates are prepared by adding 100 nL of RET inhibitor at different concentrations to a 384-well plate. 5 μL/well of a 2× enzyme mix (50 mM HEPES (4-(2-hydroxyethyl)-1-piperazineethanesulfonic acid); 1 mM CHAPS (3-[(3-cholamidopropyl)dimethylammonio]-1-propanesulfonate); 0.1 mg/mL BSA (bovine serum albumin); 1 mM DTT (dithiothreitol); 0.2 nM RET kinase) was added to the 384-well plate and incubated for 30 minutes at 23° C. 5 µL/well of a 2× substrate mix (50 mM HEPES; 1 mM CHAPS; 0.1 mg/mL BSA; 20 μM adenosine triphosphate; 20 mM MgCl2 and 1 μM biotinylated peptide substrate) was added and incubated for 1 hour at 23° C. […] IC50s were fitted using GraphPad Prism to a sigmoidal dose response.

IC50, < 100 nM:
CCOc1cc(=O)[nH]cc1-c1ncc(NC(=O)Nc2ccc(CC(C)(C)CO)c(C(F)(F)F)c2)c(C)n1 [Example 47, 1-(2-(4-Ethoxy-6-oxo-1,6-dihydropyridin-3-yl)-4-methylpyrimidin-5-yl)-3-(4-(3-hydroxy-2,2-dimethylpropyl)-3-(trifluoromethyl)phenyl)urea]
CCOc1cc(-c2ncc(NC(=O)Nc3ccc(CC(C)(C)CO)c(C(F)(F)F)c3)c(C)n2)c[nH]c1=O [Example 48, 1-(2-(5-Ethoxy-6-oxo-1,6-dihydropyridin-3-yl)-4-methylpyrimidin-5-yl)-3-(4-(3-hydroxy-2,2-dimethylpropyl)-3-(trifluoromethyl)phenyl)urea]
CCOc1cc(Oc2ccc(NC(=O)Nc3ccc(OC4(C)COC4)c(C(F)(F)F)c3)cc2)c[nH]c1=O [Example 49, 1-(4-((5-Ethoxy-6-oxo-1,6-dihydropyridin-3-yl)oxy)phenyl)-3-(4-((3-methyloxetan-3-yl)oxy)-3-(trifluoromethyl)phenyl)urea]
CCOc1cc(-c2ccc(NC(=O)Nc3ccc(OC4(C)COC4)c(C(F)(F)F)c3)c(C)n2)c[nH]c1=O [Example 50, 1-(5′-Ethoxy-6-methyl-6′-oxo-1′,6′-dihydro-[2,3′-bipyridin]-5-yl)-3-(4-((3-methyloxetan-3-yl)oxy)-3-(trifluoromethyl)phenyl)urea hydrochloride]
CCOc1cc(=O)[nH]cc1-c1ncc(NC(=O)Nc2ccc(C(C)(C)O)c(C(F)(F)F)c2)c(C)n1 [Example 51, 1-(2-(4-Ethoxy-6-oxo-1,6-dihydropyridin-3-yl)-4-methylpyrimidin-5-yl)-3-(4-(2-hydroxypropan-2-yl)-3-(trifluoromethyl)phenyl)urea]
CCOc1cc(=O)[nH]cc1-c1ncc(NC(=O)Nc2cc(-n3cnc(C)c3)cc(C(F)(F)F)c2)c(C)n1 [Example 52, 1-(2-(4-Ethoxy-6-oxo-1,6-dihydropyridin-3-yl)-4-methylpyrimidin-5-yl)-3-(3-(4-methyl-1H-imidazol-1-yl)-5-(trifluoromethyl)phenyl)urea]
CCOc1cc(-c2nc(C)c(NC(=O)Nc3cc(-n4cnc(C)c4)cc(C(F)(F)F)c3)c(C)n2)c[nH]c1=O [Example 53, 1-(2-(5-Ethoxy-6-oxo-1,6-dihydropyridin-3-yl)-4,6-dimethylpyrimidin-5-yl)-3-(3-(4-methyl-1H-imidazol-1-yl)-5-(trifluoromethyl)phenyl)urea]
CCOc1cc(=O)[nH]cc1-c1ncc(NC(=O)Nc2ccc(Cl)c(C(F)(F)F)c2)c(C)n1 [Example 54, 1-(4-Chloro-3-(trifluoromethyl)phenyl)-3-(2-(4-ethoxy-6-oxo-1,6-dihydropyridin-3-yl)-4-methylpyrimidin-5-yl)urea]
CCOc1cc(=O)[nH]cc1-c1ncc(NC(=O)Nc2ccc(CN(C)C)c(C(F)(F)F)c2)c(C)n1 [Example 55, 1-(4-((Dimethylamino)methyl)-3-(trifluoromethyl)phenyl)-3-(2-(4-ethoxy-6-oxo-1,6-dihydropyridin-3-yl)-4-methylpyrimidin-5-yl)urea]
CCOc1cc(-c2ncc(NC(=O)Nc3cc(-n4cnc(C)c4)cc(C(F)(F)F)c3)c(CC)n2)c[nH]c1=O [Example 56, 1-(2-(5-Ethoxy-6-oxo-1,6-dihydropyridin-3-yl)-4-ethylpyrimidin-5-yl)-3-(3-(4-methyl-1H-imidazol-1-yl)-5-(trifluoromethyl)phenyl)urea]
CCOc1cc(-c2ncc(NC(=O)Nc3cc(-n4cnc(C)c4)cc(C(F)(F)F)c3)c(C)n2)c[nH]c1=O [Example 57, 1-(2-(5-Ethoxy-6-oxo-1,6-dihydropyridin-3-yl)-4-methylpyrimidin-5-yl)-3-(3-(4-methyl-1H-imidazol-1-yl)-5-(trifluoromethyl)phenyl)urea]
CCOc1cc(-c2ncc(NC(=O)Nc3ccc(CN(C)C)c(C(F)(F)F)c3)c(C)n2)c[nH]c1=O [Example 58, 1-(4-((Dimethylamino)methyl)-3-(trifluoromethyl)phenyl)-3-(2-(5-ethoxy-6-oxo-1,6-dihydropyridin-3-yl)-4-methylpyrimidin-5-yl)urea]
CCOc1cc(-c2nc(C)c(NC(=O)Nc3ccc(CN(C)C)c(C(F)(F)F)c3)c(C)n2)c[nH]c1=O [Example 59, 1-(4-((Dimethylamino)methyl)-3-(trifluoromethyl)phenyl)-3-(2-(5-ethoxy-6-oxo-1,6-dihydropyridin-3-yl)-4,6-dimethylpyrimidin-5-yl)urea]
CCOc1cc(-c2ncc(NC(=O)Nc3ccc(Cl)c(C(F)(F)F)c3)c(C)n2)c[nH]c1=O [Example 60, 1-(4-Chloro-3-(trifluoromethyl)phenyl)-3-(2-(5-ethoxy-6-oxo-1,6-dihydropyridin-3-yl)-4-methylpyrimidin-5-yl)urea]
CCOc1cc(=O)[nH]cc1-c1ncc(NC(=O)Nc2ccc(C(C)(C)C(N)=O)c(C(F)(F)F)c2)c(C)n1 [Example 61, 2-(4-(3-(2-(4-Ethoxy-6-oxo-1,6-dihydropyridin-3-yl)-4-methylpyrimidin-5-yl)ureido)-2-(trifluoromethyl)phenyl)-2-methylpropanamide]
CCOc1cc(-c2cnc(NC(=O)Nc3ccc(OC4(C)COC4)c(C(F)(F)F)c3)cc2C)c[nH]c1=O [Example 62, 1-(5′-Ethoxy-4-methyl-6′-oxo-1′,6′-dihydro-[3,3′-bipyridin]-6-yl)-3-(4-((3-methyloxetan-3-yl)oxy)-3-(trifluoromethyl)phenyl)urea]
CCOc1cc(-c2ncc(NC(=O)Nc3ccc(C(C)(C)C(N)=O)c(C(F)(F)F)c3)c(C)n2)c[nH]c1=O [Example 63, 2-(4-(3-(2-(5-Ethoxy-6-oxo-1,6-dihydropyridin-3-yl)-4-methylpyrimidin-5-yl)ureido)-2-(trifluoromethyl)phenyl)-2-methylpropanamide]
CCOc1cc(-c2ccc(NC(=O)Nc3ccc(CC(C)(C)CO)c(C(F)(F)F)c3)c(F)c2)c[nH]c1=O [Example 64, 1-(4-(5-Ethoxy-6-oxo-1,6-dihydropyridin-3-yl)-2-fluorophenyl)-3-(4-(3-hydroxy-2,2-dimethylpropyl)-3-(trifluoromethyl)phenyl)urea]
CCOc1cc(-c2ncc(NC(=O)Nc3ccc(C4(CO)CC4)c(C(F)(F)F)c3)c(C)n2)c[nH]c1=O [Example 66, 1-(2-(5-Ethoxy-6-oxo-1,6-dihydropyridin-3-yl)-4-methylpyrimidin-5-yl)-3-(4-(1-(hydroxymethyl)cyclopropyl)-3-(trifluoromethyl)phenyl)urea hydrochloride]
CCOc1cc(=O)[nH]cc1-c1ncc(NC(=O)Nc2cc(-c3nnc(C)o3)cc(C(F)(F)F)c2)c(C)n1 [Example 67, 1-(2-(4-Ethoxy-6-oxo-1,6-dihydropyridin-3-yl)-4-methylpyrimidin-5-yl)-3-(3-(5-methyl-1,3,4-oxadiazol-2-yl)-5-(trifluoromethyl)phenyl)urea]
CC(C)(C)c1cc(NC(=O)Nc2ccc(-c3ccc(=O)[nH]c3)cc2)n(-c2ccccc2)n1 [Example 68, 1-(3-(tert-Butyl)-1-phenyl-1H-pyrazol-5-yl)-3-(4-(6-oxo-1,6-dihydropyridin-3-yl)phenyl)urea]
CCOc1cc(-c2ncc(NC(=O)Nc3ccc(C(C)(C)CN)c(C(F)(F)F)c3)c(C)n2)c[nH]c1=O [Example 70, 1-(4-(1-Amino-2-methylpropan-2-yl)-3-(trifluoromethyl)phenyl)-3-(2-(5-ethoxy-6-oxo-1,6-dihydropyridin-3-yl)-4-methylpyrimidin-5-yl)urea dihydrochloride]
CCOc1cc(-c2ncc(NC(=O)Nc3ccc(C(C)(C)O)c(C(F)(F)F)c3)c(C)n2)c[nH]c1=O [Example 71, 1-(2-(5-Ethoxy-6-oxo-1,6-dihydropyridin-3-yl)-4-methylpyrimidin-5-yl)-3-(4-(2-hydroxypropan-2-yl)-3-(trifluoromethyl)phenyl)urea]
CCOc1cc(-c2ccc(NC(=O)Nc3cc(-n4cncn4)cc(C(F)(F)F)c3)c(F)c2)c[nH]c1=O [Example 72, 1-(3-(1H-1,2,4-Triazol-1-yl)-5-(trifluoromethyl)phenyl)-3-(4-(5-ethoxy-6-oxo-1,6-dihydropyridin-3-yl)-2-fluorophenyl)urea hydrochloride]
